Earlier results in paper PMC11170759, “Advancing Parkinson’s Disease Diagnostics: The Potential of Arylpyrazolethiazole Derivatives for Imaging α-Synuclein Aggregates” (ACS Omega, 2024).

System: α-synuclein aggregates
Parameters: method as in PMID 34577548
Details: literature ligand of Figure 1; cited from earlier work

c1ccc(-c2ccc(C3CC(c4ccc5c(c4)OCO5)=NN3)o2)cc1 (stereo not shown) [8b]
reduction of ThT fluorescence: 94%
